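How tested: cells in 96-well plates exposed to compound for 48 hours at five concentrations. GI50 is the concentration that inhibits growth by half.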 Activity calls are given as the source filed them. No stated cut-off is given here; in the data, active = GI50 up to about 1.1 µM and inactive = higher.

Some test systems named below: COLO 205; RPMI-8226; MDA-MB-231; NCI-H23; MCF7; LOX IMVI; KM12; SK-MEL-2; SF-539; SN12C; UACC-62; HOP-62; U-251; SR; OVCAR-5; Malme-3M; OVCAR-4; RXF 393; SNB-19; NCI-H460.
Holding throughout (assay): inhibition of tumour cell growth, NCI panel, 48 h

For `Cc1cc2nc3c(C#N)c4c(c(Nc5ccc(F)cc5)n3c2cc1C)CCC4`, the GI50 in the experiment with COLO 205, with RPMI-8226, with MDA-MB-231, in the experiment with NCI-H23, with MCF7 and in the experiment on LOX IMVI was > 100 µM (inactive) throughout. For the same molecule, the GI50 in the experiment on KM12, with SK-MEL-2, in the experiment on SF-539, in the experiment on SN12C, in the experiment with UACC-62 and in the experiment on HOP-62 was > 100 µM (inactive) in each case. Also, the GI50 in the experiment on U-251 was > 100 µM (inactive); with SR, > 100 µM (inactive); in the experiment on OVCAR-5, > 100 µM (inactive); in the experiment on Malme-3M it was 52.2 µM (inactive); with OVCAR-4, > 100 µM (inactive); with RXF 393, > 100 µM (inactive). Also, the GI50 in the experiment on SNB-19 and in the experiment on NCI-H460 was > 100 µM (inactive) in each case.

Consider `CCOP(=O)(OCC)C1=C(c2ccccc2)OC(N)=C(C#N)C1c1ccc(Cl)cc1` (stereo not given), for which the GI50 in the experiment on COLO 205, with RPMI-8226, in the experiment on MDA-MB-231, with NCI-H23, in the experiment on MCF7 and in the experiment on LOX IMVI was > 100 µM (inactive) in each case. Further, the GI50 was > 100 µM (inactive) with KM12; > 100 µM (inactive) in the experiment on SK-MEL-2; 66.1 µM (inactive) with SF-539; > 100 µM (inactive) in the experiment on SN12C; > 100 µM (inactive) in the experiment with UACC-62; > 100 µM (inactive) in the experiment with HOP-62. Further, the GI50 in the experiment on U-251, in the experiment with SR, with OVCAR-5, in the experiment with Malme-3M, with OVCAR-4 and in the experiment on RXF 393 was > 100 µM (inactive) in each case. Moreover, the GI50 in the experiment on SNB-19 and in the experiment on NCI-H460 was > 100 µM (inactive) throughout.

On to `CC(=O)Nc1ccc2c3c(cc(O)c2c1)N(C(=O)CCCC(=O)Nc1ccc2c4c(cc(O)c2c1)N(C(=O)OC(C)(C)C)CC4CCl)CC3CCl` (stereo not given), for which the GI50 is 1.22 µM (inactive) in the experiment on COLO 205; 5.69 µM (inactive) with RPMI-8226; 1.47 µM (inactive) in the experiment on MDA-MB-231; 1.42 µM (inactive) in the experiment with NCI-H23; 0.225 µM (active) in the experiment with MCF7; 0.904 µM (active) with LOX IMVI. Also, the GI50 is 2.26 µM (inactive) in the experiment on KM12; 0.955 µM (active) with SK-MEL-2; 1.42 µM (inactive) in the experiment on SF-539; 1.57 µM (inactive) in the experiment on SN12C; 0.998 µM (active) in the experiment with UACC-62; 2.01 µM (inactive) in the experiment with HOP-62. The GI50 was 0.841 µM (active) in the experiment with U-251; 0.0221 µM (active) in the experiment with SR; 2.3 µM (inactive) with OVCAR-5; 0.78 µM (active) in the experiment with Malme-3M; 1.44 µM (inactive) in the experiment with OVCAR-4; 2.58 µM (inactive) in the experiment on RXF 393. Moreover, the GI50 in the experiment with SNB-19 is 1.24 µM (inactive); in the experiment with NCI-H460, 1.48 µM (inactive).

Take `O=C1NC(=S)N(c2cccc3ccccc23)C(=O)/C1=C/c1c[nH]c2ccccc12`: the GI50 in the experiment on COLO 205 was 1.84 µM (inactive); in the experiment with RPMI-8226, 2.02 µM (inactive); in the experiment with MDA-MB-231, 2.16 µM (inactive); in the experiment on NCI-H23 it was 1.81 µM (inactive); with MCF7 it was 2.54 µM (inactive); with LOX IMVI, 1.82 µM (inactive). In addition, the GI50 was 2.32 µM (inactive) with KM12; 1.69 µM (inactive) with SK-MEL-2; 2.23 µM (inactive) with SF-539; 2.02 µM (inactive) in the experiment with SN12C; 1.7 µM (inactive) in the experiment with UACC-62; 2.83 µM (inactive) in the experiment with HOP-62. For the same molecule, the GI50 with U-251 was 2.22 µM (inactive); with SR, 1.41 µM (inactive); in the experiment on OVCAR-5 it was 2.4 µM (inactive); with Malme-3M, 2.23 µM (inactive); in the experiment with OVCAR-4, 2.44 µM (inactive); in the experiment on RXF 393 it was 1.91 µM (inactive). The GI50 with SNB-19 was 3.08 µM (inactive); with NCI-H460 it was 2.36 µM (inactive).

The values above are taken from ChEMBL document CHEMBL1201862, “PubChem BioAssay data set” (2004).
